In article PMC12406196, “Anticoronavirus Activity of Uridine Glycoconjugates Containing a 1,2,3-Triazole Moiety” (Journal of Medicinal Chemistry, 2025):
Entries after “also recorded” stand apart in the source; their conditions may differ.

Legend:
LR7 cells = experiment: MTS-based cell viability assay in LR7 cells; parameters: species or system mouse; details: 50 μM, uninfected LR7 cells
Experimental: LR7, LLC-Mk2 or Vero cells were seeded in 96-well plates and cultured overnight. Next, the medium was changed to a new one supplemented with different concentrations (in triplicate) of analyzed compounds. Following the 2 days (LR7 and Vero) or 4 days (LLC-Mk-2) of incubation, CellTiter 96 AQueous nonradioactive cell proliferation assay (Promega) was performed according to the manufacturer’s instruction. The half-maximal cytotoxic concentration (CC50) was calculated as the concentration of a compound needed to reduce cell viability by 50% using GraphPad Prism software (version 5.01, GraphPad Software, San Diego, CA).

[1] = test system: murine hepatitis virus strain A59 (MHV); experiment: Reduction of MHV cytopathic effect (CPE) in LR7 cells, MTS/PMS readout; type: cell-based; details: 50 μM, MOI 0.01, 24 h
Experimental: LR7 cells were seeded in a 96-well plate and cultured overnight. Next, the cells were infected with MHV at an MOI value of 0.01 in medium without FBS. Following 1 h of incubation, the medium containing the virus was collected and cells were covered with a medium supplemented with different concentrations (in triplicate) of the analyzed compounds or DMSO. 24 h p.i. cells viability was evaluated by CellTiter 96 AQueous nonradioactive cell proliferation assay (Promega) according to the manufacturer’s instruction.

[2] = test system: human coronavirus strain NL63 (HCoV-NL63); experiment: HCoV-NL63 N protein expression in LLC-Mk2 cells, Western blot and densitometry; type: cell-based; details: 50 μM, MOI 0.01, 4 days p.i., Western blot/densitometry
Experimental: LLC-Mk2 monolayers grown in 24-well plates were infected with HCoV-NL63 at an MOI value of 0.01 for 2 h. Unbound virus was removed, and cells were cultured in medium supplemented with different concentrations of compounds. Four days postinfection, cells were collected and lysed in CellLyticM Cell Lysis Reagent (Sigma). Following the protein separation by SDS-PAGE and transfer to PVDF membranes, proteins were immunoblotted using specific mouse anti-N NL63 Abs (Eurofins, Spain) or rabbit anti-β-catenin Abs (Santa Cruz), followed by antimouse or antirabbit secondary antibodies conjugated with HRP. Proteins were visualized and analyzed by chemiluminescence using the UVITEC Cambridge Alliance MINI HD detection system. The densitometric analysis of cells treated with 50 μM dose of a panel of glycoconjugates was performed based on three biological replicates of N and β-catenin immunoblots. The N protein levels were expressed as a percentage relative to DMSO-treated infected cells, while β-catenin levels were expressed as a percentage relative to noninfected control cells. The data were presented as the ratio of N/β-catenin for each sample, normalized accordingly.

SARS-CoV-2 replicon = type: cell-based

CC(=O)OC[C@H]1O[C@@H](OCc2cn(C[C@H]3O[C@@H](n4ccc(=O)[nH]c4=O)[C@H](O[Si](C)(C)C(C)(C)C)[C@@H]3O[Si](C)(C)C(C)(C)C)nn2)[C@H](OC(C)=O)[C@@H](OC(C)=O)[C@@H]1OC(C)=O [Compound 14, 2′,3′-di-O-tert-Butyldimethylsilyl-5′-deoxy-5′-[4-(2″,3″,4″,6″-tetra-O-acetyl-β-D-glucopyranosyloxymethyl)-1,2-3-triazol-1-yl]-uridine]
reduction of cell viability (cytotoxicity in uninfected cells) (LR7 cells): 10–30%
protection against MHV-induced CPE [1]: significantly reduced cell death
HCoV-NL63 N protein level [2]: significantly reduced; also recorded: weaker activity against HCoV-NL63

CC(=O)OC[C@H]1O[C@@H](OCCn2cc(CNC(=O)[C@H]3O[C@@H](n4ccc(=O)[nH]c4=O)[C@H](O[Si](C)(C)C(C)(C)C)[C@@H]3O[Si](C)(C)C(C)(C)C)nn2)[C@H](OC(C)=O)[C@@H](OC(C)=O)[C@@H]1OC(C)=O [Compound 16, N-Uracil [(1-(2″,3″,4″,6″-tetra-O-Acetyl-β-D-glucopyranosyloxyethyl)-1,2-3-triazol-4-yl)-methyl]-1′-deoxy-2′,3′-di-O-tert-butyldimethylsilyl-β-D-ribofuranuronamide]
reduction of cell viability (cytotoxicity in uninfected cells) (LR7 cells): 10–30%
HCoV-NL63 N protein level [2]: No significant reduction

CC(=O)OC[C@H]1O[C@@H](OCCn2cc(CNC(=O)[C@H]3O[C@@H](n4ccc(=O)[nH]c4=O)[C@H](O[Si](C)(C)C(C)(C)C)[C@@H]3O[Si](C)(C)C(C)(C)C)nn2)[C@H](OC(C)=O)[C@@H](OC(C)=O)[C@H]1OC(C)=O [Compound 17, N-Uracil [(1-(2″, 3″, 4″, 6″-tetra-O-Acetyl-β-D-galactopyranosyloxyethyl)-1,2-3-triazol-4-yl)-methyl]-1′-deoxy-2′,3′-di-O-tert-butyldimethylsilyl-β-D-ribofuranuronamide]
reduction of cell viability (cytotoxicity in uninfected cells) (LR7 cells): 10–30%
HCoV-NL63 N protein level [2]: No significant reduction

CC(=O)OC[C@H]1O[C@@H](NC(=O)Cn2cc(CNC(=O)[C@H]3O[C@@H](n4ccc(=O)[nH]c4=O)[C@H](O[Si](C)(C)C(C)(C)C)[C@@H]3O[Si](C)(C)C(C)(C)C)nn2)[C@H](OC(C)=O)[C@@H](OC(C)=O)[C@@H]1OC(C)=O [Compound 18, N-Uracil [((1-(2-oxo-(2″,3″,4″,6″-tetra-O-Acetyl-β-D-glucopyranosyl)-amino)-ethyl)-1,2-3-triazol-4-yl)-methyl]-1′-deoxy-2′,3′-di-O-tert-butyldimethylsilyl-β-D-ribofuranuronamide]
reduction of cell viability (cytotoxicity in uninfected cells) (LR7 cells): 10–30%
protection against MHV-induced CPE [1]: limited anti-MHV activity
HCoV-NL63 N protein level [2]: No significant reduction

CC(=O)OC[C@H]1O[C@@H](NC(=O)Cn2cc(CNC(=O)[C@H]3O[C@@H](n4ccc(=O)[nH]c4=O)[C@H](O[Si](C)(C)C(C)(C)C)[C@@H]3O[Si](C)(C)C(C)(C)C)nn2)[C@H](OC(C)=O)[C@@H](OC(C)=O)[C@H]1OC(C)=O [Compound 19, N-Uracil [((1-(2-oxo-(2″,3″,4″,6″-tetra-O-Acetyl-β-D-galactopyranosyl)-amino)-ethyl)-1,2-3-triazol-4-yl)-methyl]-1′-deoxy-2′,3′-di-O-tert-butyldimethylsilyl-β-D-ribofuranuronamide]
reduction of cell viability (cytotoxicity in uninfected cells) (LR7 cells): 10–30%
protection against MHV-induced CPE [1]: limited anti-MHV activity
HCoV-NL63 N protein level [2]: No significant reduction

CC(=O)OC[C@H]1O[C@@H](SCn2cc(CNC(=O)[C@H]3O[C@@H](n4ccc(=O)[nH]c4=O)[C@H](O[Si](C)(C)C(C)(C)C)[C@@H]3O[Si](C)(C)C(C)(C)C)nn2)[C@H](OC(C)=O)[C@@H](OC(C)=O)[C@@H]1OC(C)=O [Compound 22, N-Uracil [(1-(2″,3″,4″,6″-tetra-O-Acetyl-β-D-glucopyranosylthiomethyl)-1,2-3-triazol-4-yl)-methyl]-1′-deoxy-2′,3′-di-O-tert-butyldimethylsilyl-β-D-ribofuranuronamide]
reduction of cell viability (cytotoxicity in uninfected cells) (LR7 cells): no detectable toxicity
protection against MHV-induced CPE [1]: significantly reduced cell death
HCoV-NL63 N protein level [2]: No significant reduction

CC(=O)OC[C@H]1O[C@@H](SCn2cc(CNC(=O)[C@H]3O[C@@H](n4ccc(=O)[nH]c4=O)[C@H](O[Si](C)(C)C(C)(C)C)[C@@H]3O[Si](C)(C)C(C)(C)C)nn2)[C@H](OC(C)=O)[C@@H](OC(C)=O)[C@H]1OC(C)=O [Compound 23, N-Uracil [(1-(2″,3″,4″,6″-tetra-O-Acetyl-β-D-galactopyranosylthiomethyl)-1,2-3-triazol-4-yl)-methyl]-1′-deoxy-2′,3′-di-O-tert-butyldimethylsilyl-β-D-ribofuranuronamide]
reduction of cell viability (cytotoxicity in uninfected cells) (LR7 cells): 10–30%
HCoV-NL63 N protein level [2]: No significant reduction

CC(=O)OC[C@H]1O[C@@H](SCn2cc(COC[C@H]3O[C@@H](n4ccc(=O)[nH]c4=O)[C@H](O[Si](C)(C)C(C)(C)C)[C@@H]3O[Si](C)(C)C(C)(C)C)nn2)[C@H](OC(C)=O)[C@@H](OC(C)=O)[C@H]1OC(C)=O [Compound 25, 2′,3′-di-O-tert-Butyldimethylsilyl-5′-O-[(1-(2″,3″,4″,6″-tetra-O-acetyl-β-D-galactopyranosylthiomethyl)-1,2-3-triazol-4-yl)-methyl]-uridine]
protection against MHV-induced CPE [1]: lower activity against MHV
HCoV-NL63 N protein level [2]: significantly reduced; also recorded: No N protein was detected

CC(C)(C)[C@H](NC(=O)C(F)(F)F)C(=O)N1C[C@H]2[C@@H]([C@H]1C(=O)N[C@H](C#N)C[C@@H]1CCNC1=O)C2(C)C [nirmatrelvir, reference compound]
inhibition of SARS-CoV-2 replication (replicon) (SARS-CoV-2 replicon): inhibited SARS-CoV-2 replication
